From patent publication US20130202698A1 (NANJING SANHOME PHARMACEUTICAL CO., LTD., priority 2005, published 2013)
Where two headings read alike, the source gives them in different places. Marks after values point to notes of the source that are not given here.

Assays:
[1] = test system: trichomonas vaginalis; assay: Pharmacodynamic study of trichomonas vaginalis infection in mice; type: in vivo; design: ED90: unit not given beside the values; settings: male ICR mice infected intraperitoneally, drug i.v. at 2, 24, 48, 72 hours
Experimental: Male ICR mice were injected intraperitoneally with liquid containing 0.4 ml 3×10^6 trichomonas vaginalis (trichomonas vaginalis from clinical patients). The mice were randomly divided into 19 groups, each with 10. The mice in solvent control group were given blank solutions by tail vein injection. The treatment groups were injected intravenously at 2, 24, 48, and 72 hours after infection with active drugs. The animals were killed five days after infection. Washing offal, fluid was centrifuged, and microscopically examined for life larvae. Autopsy was performed to determine whether there was any visceral and abdominal abscess, microscopic examination was conducted to determine the number of live trichomoniasis in the abscess. […] The abscess formation was inhibited in the treatment groups[…] and the number of live trichomoniasis was reduced. Calculate the dosage of 50% (ED50) and 90% (ED90) inhibition rate.

[2] = test system: plasma protein
[3] = test system: righting reflex; assay: Hypnotic effect, loss of righting reflex; type: in vivo, mice; settings: mouse, in vivo
Experimental: Thirty minutes after drug administration, the number of animals losing righting reflex (LORR) was recorded. […] Sodium pentobarbital was used at […] as the positive control.

[4] = Phase II clinical trial, oral tablets, departments of stomatology, adverse events; type: in vivo, human; settings: human, in vivo, po
Experimental: Double-blinded randomized controlled trials were carried out to compare the adverse events of oral levo-ornidazole with racemate treatment groups. Two separate studies were conducted for patients with infections from either department of stomatology or obstetrics/gynecology.

[5] = test system: motor balance and coordination; settings: both, mouse, in vivo
Experimental: Motor balance and coordination were tested using a modified beam walking method. Mice were put on a smooth beam tilted at an angle of 70 degree. Mice passed the test by standing on the beam for 0.5 minute without falling off. All the mice were pre-screened before the studies, and a total of 110 mice were selected by passing the beam test in 3 consecutive tries. The selected mice were divided into 11 groups with 10 mice in each group (half male and half female). At certain time points after drug administration, mice were tested on the beam for 3 consecutive times. A mouse was counted as failing to the test if it fell off the beam for 2 or more times.
The dose volume was 0.2 mL/10 gram and infusion rate was 0.2 mL/10 seconds. Chlorpromazine was used as the positive control.

[6] = Phase II clinical trial, intravenous, adverse events; type: in vivo, human; settings: human, in vivo, iv
Experimental: A double-blinded randomized controlled trial was carried out to compare the adverse events between the I.V. levo-ornidazole and racemate treatment groups. […] The high rate of adverse events observed from the treatment by the racemic drug caused patient treatment non-compliant, which could be dangerous for life-threatening infections.

[7] = test system: Beagle dogs; settings: dog, in vivo, iv, 200 mg/kg
Experimental: In the studies, male and female Beagle dogs were treated at high doses of ornidazole enantiomers for 2 weeks, and then sacrificed for anatomical and pathological examinations. […] All the doses were administered in the levo- and racemate groups.

[8] = test system: amoeba dysentery; assay: Pharmacodynamic study of cecum amoeba infection in mice; type: in vivo; settings: male ICR mice infected in the cecum, drug i.v. at 24, 48, 72 hours
Experimental: Male ICR mice were injected with liquid containing about 200,000 units of amoeba dysentery in the cecum. The mice were randomly divided into 19 groups, each with 10. The mice in solvent control group were given blank solutions by tail vein injection. The treatment groups were injected intravenously at 24, 48, 72 hours after infection with active drugs. The animals were killed six days after infection. Intestinal mucosal biopsies were done, and comparative studies of different stages of the amoeba were studied under microscope. […] Calculated the dosage of 50% (ED50) and 90% (ED90) inhibition rate.

[9] = test system: spontaneous activities of mice; settings: both, mouse, in vivo, iv
Experimental: Mice weighing 18-22 g, half male and half female, were placed in the laboratory 24 hours before the test to adapt to the environment. The room temperature was controlled at 24±2° C. Animals were fasted for 8 hours before testing, and then placed in a transparent cage. The number of spontaneous activities of mice was counted by an automatic device (model XZ-4 by Drug Research Institute of China Academy of Medical Sciences). Mice were pre-screened by counting their spontaneous activities for five minutes and unqualified mice were excluded. A total of 110 mice were selected and divided into 11 groups with 10 mice in each group.
Chlorpromazine (3 mg/kg) was used as the positive control. The dose volume was 0.2 mL/10 gram and infusion rate was 0.2 mL/10 seconds.

## Cc1ncc([N+](=O)[O-])n1C[C@H](O)CCl [L-ornidazole, S-(−)-ornidazole]
[1]; Trichomonas vaginalis, dosage of 50% inhibition rate, read-out: ED50
  ED50: 9.1 mg/kg
[1]; dosage of 90% inhibition rate
  ED90: 32.6
[2]
  Plasma protein binding, levo- vs dextro-ornidazole: Similar
[3]; both, 40 mg/kg, 30 min
  Number of animals Loss of Righting Flex 30 min Post-dose: 0
[3]; both, 80 mg/kg, 30 min
  Number of animals Loss of Righting Flex 30 min Post-dose: 0
[3]; both, 160 mg/kg, 30 min
  Number of animals Loss of Righting Flex 30 min Post-dose: 0
[3]; 160 mg/kg
  Number of animals Loss of Righting Flex 30 min Post-dose: none
[4]
  Bloating, # of Patients with AE: 0
  Bloating, Incidence (%): 0.00%
  Constipation, # of Patients with AE: 1
  Constipation, Incidence (%): 0.72%
  Drowsy, # of Patients with AE: 0
  Drowsy, Incidence (%): 0.00%
  Dry mouth, # of Patients with AE: 0
  Dry mouth, Incidence (%): 0.00%
  Headache, # of Patients with AE: 0
  Headache, Incidence (%): 0.00%
  Hypersomnia, # of Patients with AE: 0
  Hypersomnia, Incidence (%): 0.00^# %
  Hypodynamia, # of Patients with AE: 0
  Hypodynamia, Incidence (%): 0.00%
  Loss of appetite, # of Patients with AE: 0
  Loss of appetite, Incidence (%): 0.00%
  Nausea, # of Patients with AE: 4
  Nausea, Incidence (%): 2.88%
  Palpitation, # of Patients with AE: 0
  Palpitation, Incidence (%): 0.00%
  Patients with adverse events (total): 5 patients
  Pruritus, # of Patients with AE: 0
  Pruritus, Incidence (%): 0.00%
  Rash, # of Patients with AE: 0
  Rash, Incidence (%): 0.00%
  Sourregurgitation, # of Patients with AE: 0
  Sourregurgitation, Incidence (%): 0.00%
  Stomach discomfort, # of Patients with AE: 0
  Stomach discomfort, Incidence (%): 0.00^# %
  Stupor, # of Patients with AE: 0
  Stupor, Incidence (%): 0.00%
  Total incidence rate of adverse events: 3.60%
  Vertigo, # of Patients with AE: 0
  Vertigo, Incidence (%): 0.00%
  Vomiting, # of Patients with AE: 0
  Vomiting, Incidence (%): 0.00%
[5]; 40 mg/kg, 0.5 h
  Number of Animals Fall Off: 0
[5]; 40 mg/kg, 1 h
  Number of Animals Fall Off: 1
[5]; 40 mg/kg, 2 h
  Number of Animals Fall Off: 0
[5]; 40 mg/kg, 3 h
  Number of Animals Fall Off: 0
[5]; 40 mg/kg, 4 h
  Number of Animals Fall Off: 0
[5]; 80 mg/kg, 0.5 h
  Number of Animals Fall Off: 0
[5]; 80 mg/kg, 1 h
  Number of Animals Fall Off: 0
[5]; 80 mg/kg, 2 h
  Number of Animals Fall Off: 0
[5]; 80 mg/kg, 3 h
  Number of Animals Fall Off: 1
[5]; 80 mg/kg, 4 h
  Number of Animals Fall Off: 1
[5]; 160 mg/kg, 0.5 h
  Number of Animals Fall Off: 0
[5]; 160 mg/kg, 1 h
  Number of Animals Fall Off: 0
[5]; 160 mg/kg, 2 h
  Number of Animals Fall Off: 3
[5]; 160 mg/kg, 3 h
  Number of Animals Fall Off: 2
[5]; 160 mg/kg, 4 h
  Number of Animals Fall Off: 1
[6]
  Adverse events reported (total): 3
  Appetite drop, # of Patients with AE: 1
  Appetite drop, Incidence (%): 0.74%
  Dizziness, # of Patients with AE: 0
  Dizziness, Incidence (%): 0.00%
  Dry mouth, # of Patients with AE: 0
  Dry mouth, Incidence (%): 0.00%
  Headache, # of Patients with AE: 0
  Headache, Incidence (%): 0.00%
  Hypersomnia, # of Patients with AE: 0
  Hypersomnia, Incidence (%): 0.00%
  Hypodynamia, # of Patients with AE: 0
  Hypodynamia, Incidence (%): 0.00%
  Nausea, # of Patients with AE: 0
  Nausea, Incidence (%): 0.00%
  Patients with adverse events (total): 2 patients
  Stomach discomfort, # of Patients with AE: 0
  Stomach discomfort, Incidence (%): 0.00%
  Total incidence rate of adverse events: 1.47%
  Vertigo, # of Patients with AE: 0
  Vertigo, Incidence (%): 0.00%
  Vomiting, # of Patients with AE: 0
  Vomiting, Incidence (%): 0.00%
  WBC decline, # of Patients with AE: 2
  WBC decline, Incidence (%): 1.47%
[7]
  Toxicity Severity: Mild
[8]; Mus musculus, iv, dosage of 50% inhibition rate
  ED50: 10.5 mg/kg
[8]; dosage of 90% inhibition rate
  ED90: 41.2
[9]; 40 mg/kg, 0.5 h
  Spontaneous Activities (per 5 min): 89 ± 48 per 5 min
[9]; 40 mg/kg, 1 h
  Spontaneous Activities (per 5 min): 75 ± 40 per 5 min
[9]; 40 mg/kg, 2 h
  Spontaneous Activities (per 5 min): 69 ± 29 per 5 min
[9]; 40 mg/kg, 3 h
  Spontaneous Activities (per 5 min): 63 ± 16 per 5 min
[9]; 40 mg/kg, 4 h
  Spontaneous Activities (per 5 min): 87 ± 43 per 5 min
[9]; 80 mg/kg, 0.5 h
  Spontaneous Activities (per 5 min): 59 ± 27 per 5 min
[9]; 80 mg/kg, 1 h
  Spontaneous Activities (per 5 min): 47 ± 30 per 5 min
[9]; 80 mg/kg, 2 h
  Spontaneous Activities (per 5 min): 44 ± 25 per 5 min
[9]; 80 mg/kg, 3 h
  Spontaneous Activities (per 5 min): 58 ± 36 per 5 min
[9]; 80 mg/kg, 4 h
  Spontaneous Activities (per 5 min): 64 ± 36 per 5 min
[9]; 160 mg/kg, 0.5 h
  Spontaneous Activities (per 5 min): 40 ± 31 per 5 min
[9]; 160 mg/kg, 1 h
  Spontaneous Activities (per 5 min): 45 ± 25 per 5 min
[9]; 160 mg/kg, 2 h
  Spontaneous Activities (per 5 min): 38 ± 18 per 5 min
[9]; 160 mg/kg, 3 h
  Spontaneous Activities (per 5 min): 53 ± 23 per 5 min
[9]; 160 mg/kg, 4 h
  Spontaneous Activities (per 5 min): 58 ± 26 per 5 min
